Assay results from patent US8895613B2 (priority 2013, dated 2014).

Molecular target: neuraminidase of Oseltamivir resistant virus of A/Vladivostok/16/09 (H1N1) influenza (Influenza A virus, UniProt C3W5S3)

Row | Compound | more active than A2 by factor | more active than A4 by factor
1 | CCC(CC)O[C@@H]1C=C(C(=O)O)C[C@H](NC(=N)N)[C@H]1NC(=O)C(F)F [1.4, (3R,4R,5S)-5-guanidino-4-difluoroacetamido-3-(pentan-3-yloxy)cyclohex-1-enecarboxylic acid] | 118 | 140
2 | CCC(CC)O[C@@H]1C=C(C(=O)O)C[C@H](NC(=N)N)[C@H]1NC(=O)CF [1.1, (3R,4R,5S)-5-guanidino-4-fluoroacetamido-3-(pentan-3-yloxy)cyclohex-1-enecarboxylic acid] | 207 | 250
